Experimental data as given in ChEMBL document CHEMBL6182879, “Synthesis and biological evaluation of novel 4-Arylaminoquinolines derivatives as EGFR/HDAC inhibitors” (Bioorg Med Chem Lett, 2025).
pIC50: −log10 of the molar value.

Assay: Cytotoxicity against human 16-HBE cells by CCK8 assay
Conditions: 16hbe14o-

O=C(CCCCCCC(=O)Nc1ccccc1)NO [VORINOSTAT]
pIC50: 4.30
